Assay results as given in patent publication US4029811A, “Certain antiinflammatory dihydrobenzofuran and dihydronaphthofuran acetic acid compounds” (SCHIAPPARELLI - Stabilimenti Chimici Farmaceutici Riuniti …, priority 1974, dated 1977).
“Also recorded” adds a separate entry of the source. Where a name gives a salt, the structure may show the parent alone.

Columns and labels:
abdominal stretching = assay: Anti-writhing assay (acetic acid); type: in vivo, mouse; details: 200 mg/Kg p.o., 20 minutes before 3% acetic acid i.p.; counted 20 minutes
Procedure: Male albino Swiss Mice, each weighing 20 to 22 g, were used. The animals were fasted for 18 hours before pharmacological treatment. […] The number of abdominal stretching was counted for 20 minutes following the acetic acid injection.

rat hind paw edema = assay: Carrageenin-induced edema assay; type: in vivo; details: po, 3 hours after carrageenin, tested compounds as sodium salts; for inhibition in vivo at 200 mg/kg: 200 mg/Kg/os; for inhibition in vivo at 12.5 mg/kg: 12.5 mg/Kg/os; for inhibition in vivo at 25 mg/kg: 25 mg/Kg/os; for inhibition in vivo at 50 mg/kg: 50 mg/Kg/os; for inhibition in vivo at 100 mg/kg: 100 mg/Kg/os; for inhibition in vivo at 10 mg/kg: 10 mg/Kg/os; for inhibition in vivo at 30 mg/kg: 30 mg/Kg/os; for inhibition in vivo at 90 mg/kg: 90 mg/Kg/os
Procedure: Paw edema was measured by fluid displacement when the paw was immersed in a cup of mercury.

[1] = system: experimental polyarthritis; assay: Experimental polyarthritis assay (modified Freund's adjuvant); type: in vivo, rat; details: for Activity in experimental polyarthritis assay: 14 days, paw volume, FIG. 1
Procedure: Three groups of 10 Wistar rats were used. […] Pharmacological treatment was carried out for 14 days, while the third group served as control. Paw edema was measured as for the carrageenin-induced edema. Results are reported in FIG. 1 as % increase of paw volume immediately before modified Freund's adjuvant injection.

Wistar rats [2] = assay: Long-term toxicity (60 days oral) in Wistar rats; type: in vivo; details: 60 mg/kg daily orally
Procedure: Compound (I) has been tested by employing 40 Wistar rats subdivided into 2 groups of 20 animals (10 male and 10 female). One of the groups (reference group) was fed in conventional manner, while 60 mg/kg daily of the compound on test were administered orally to the animals of the other group. The treatment was continued during 60 days: every 15 days the following aspects were checked: body weight, blood pressure (by incruent method), cardiac frequency, hemochromocytometric examination and urine analysis.
At the end of treatment, all animals have been sacrificed and subjected to further examinations (hemochromocytometric, serum-biochemical, enzymatic, electrolytic and autopsic examination).

Wistar rats [3] = assay: Teratogenic studies in Wistar rats; type: in vivo; details: 30 mg/Kg and 60 mg/Kg orally
Procedure: Tests in the attempt of discovering any teratogenic and fetal-toxicity effects have been carried out in conventional manner on Wistar rats, to which compound (I) has been administered orally at dosages of 30 mg/Kg and 60 mg/Kg.

[4] = system: painful osteoarticular processes; assay: Clinical tests in patients with painful osteoarticular processes; type: in vivo, human
Procedure: 14 patients were treated with a dosage of 100 mg three times daily, during a period of three days; in further seven cases the treatment was 200--300 mg daily during 8-10 days. The remaining four patients received a dosage of 200 mg three times daily during periods of three to five days.

[5] = case 1, 100 mg three times daily
[6] = case 1, lumbosacral arthrosis, 100 mg three times daily

For `CCC1CCc2cc(CC(=O)O)ccc2O1` (stereo not drawn) [(II), 2-ethylchroman-6-yl-acetic acid], the “% Stretching decrease from the control” value (abdominal stretching) was 42% and the inhibition in vivo at 200 mg/kg (rat hind paw edema) was 31%.

With `O=C(O)Cc1ccc2c3c(ccc2c1)OCC3` [(III), 1,2-Dihydronaphtho [2,1-b] furan-7-acetic acid] the “% Stretching decrease from the control” value (abdominal stretching) was 73%, the “Activity relative to compound (I)” value ([1]; same conditions as for compound (I)) was “quite analogous to the activity of compound (I)” and the inhibition in vivo at 200 mg/kg (rat hind paw edema) was 51%.

`O=C(O)Cc1ccc2c3c(ccc2c1)OCCC3` [(IV), 1H-2,3-Dihydronaphtho [2,1-b]pyran-8-yl-acetic acid] was tested, and the “% Stretching decrease from the control” value (abdominal stretching) was 62% and the inhibition in vivo at 200 mg/kg (rat hind paw edema) was 64%.

Work on `CCC1Cc2cc(C(C)C(=O)O)ccc2O1` (stereo not drawn) [(VI), 2(2-Ethyl-2,3-dihydrobenzofuran-5-yl)-propionic acid] yielded an inhibition in vivo at 12.5 mg/kg (rat hind paw edema) of 19.3%, an inhibition in vivo at 25 mg/kg (rat hind paw edema) of 41.6% and an inhibition in vivo at 50 mg/kg (rat hind paw edema) of 43.9%. For the same compound, the inhibition in vivo at 100 mg/kg (rat hind paw edema) was 59.1%.

Work on `CCC1CCc2cc(C(C)C(=O)O)ccc2O1` (stereo not drawn) [(VII), 2(2-Ethylchroman-6-yl)-propionic acid] yielded an inhibition in vivo at 12.5 mg/kg (rat hind paw edema) of 28.7%, an inhibition in vivo at 25 mg/kg (rat hind paw edema) of 50.2% and an inhibition in vivo at 50 mg/kg (rat hind paw edema) of 31.2%. For the same compound, the inhibition in vivo at 100 mg/kg (rat hind paw edema) was 45.9%.

For `CCC1Cc2cc(CC(=O)O)ccc2O1` (stereo not drawn) [Compound (I), 2,3-dihydro-2-ethylbenzofuran-5-yl-acetic acid], the “% Stretching decrease from the control” value (abdominal stretching) was 81%, the Food consumption (Wistar rats [2]; 60 days) was “The food consumption was regular” and the Lethal cases (Wistar rats [2]; 60 days) was “No lethal cases have been observed”. The “Alterations induced by prolonged administration” value (Wistar rats [2]; 60 days, conclusion) was “does not induce biologically relevant alterations”, the “Hemochromocytometric, serum-biochemical, enzymatic, electrolytic and autopsic examination” value (Wistar rats [2]; at end of 60 days treatment) was “No significant variations have been observed” and the “Body weight increase, blood pressure, cardiac frequency, hemochromocytometric examination and urine analysis” value (Wistar rats [2]; checked every 15 days during 60 days, versus reference group) was “No differences have been noted”. The “Activity in experimental polyarthritis assay” value ([1]; 200 mg/Kg p.o.) was “significant activity”, the “Activity versus reference drug (phenylbutazone)” value ([1]; 200 mg/Kg p.o., at least in the first 9 days of treatment) was “superior to the reference drug” and the “Pregnancy disturbances and/or toxic effects on fetus” value (Wistar rats [3]) was “No. pregnancy disturbances and/or toxic effects on fetus have been observed”. The Side effects ([4]; 25 patients, oral) was “no side effects having been observed”, the Tolerability ([4]; 25 patients, oral) was “always well tolerated” and the Antalgic-antiinflammatory effect ([4]; 25 patients, oral, overall) was “significant antalgic-antiinflammatory effect”. For the same compound, the Side effects [4, 5] was “no side effects having been observed”, the Tolerability [4, 5] was “exceedingly well tolerated” and the “Clinical response, first day” value [4, 6] was “fair symptomatologic relief”. For the same compound, the “Clinical response, second day” value [4, 6] was “improvement persists on the second day with an increased possibility for movement and gait”, the “Clinical response, third day” value [4, 6] was “the painful pattern has almost totally regressed” and the Side effects ([4]; case 2, 100 mg three times daily, eight days) was “No side effect”. The Clinical response ([4]; case 2, polyarthrosis, 100 mg three times daily, eight days) was “clear symptomatologic relief; gait is easier on the 4th and 5th day and mobility of the knee joint is improved; also recorded: Clearly positive clinical appreciation”, the Side effects ([4]; case 3, 100 mg three times daily, seven days) was “No side effect” and the Clinical response ([4]; case 3, cervical arthrosis, 100 mg three times daily, seven days) was “The patient reports relief; disappearance of cephalgia, possibility of rotating the cervical column initially blocked by pain; also recorded: almost total regression of algic aggravation”. For the same compound, the Side effects ([4]; case 4, 100 then 200 mg three times daily) was “no side effect”, the Clinical response ([4]; case 4, bilateral coxo-arthrosis, 100 mg three times daily days 1-2, 200 mg three times daily day 3) was “satisfactory response of the painful pattern with a progressive reduction in algic symptomatology; also recorded: Appreciably favourable clinical response” and the Side effects ([4]; case 5, 100 mg three times daily, five days) was “without any side effect”. The Clinical response ([4]; case 5, spinal arthrosis, 100 mg three times daily, five days) was “good antalgic effect; improved freedom of active and passive movements of the spinal column”, the “Antalgic-antiinflammatory effect judged slight” value ([4]; five of 25 cases) was 20% and the “Antalgic-antiinflammatory effect judged good or very good” value ([4]; seventeen of 25 cases) was 68%. The “Antalgic-antiinflammatory effect judged none” value ([4]; three of 25 cases) was 12%, the inhibition in vivo at 10 mg/kg (rat hind paw edema) was 28% and the inhibition in vivo at 30 mg/kg (rat hind paw edema) was 46%. It also gave an inhibition in vivo at 90 mg/kg (rat hind paw edema) of 58% and an inhibition in vivo at 200 mg/kg (rat hind paw edema) of 68%.

In the case of `CC(C)Cc1ccc(C(C)C(=O)O)cc1` (stereo not drawn) [Ibuprofen, 2-(4-isobutyl-phenyl)-propionic acid-sodium salt, reference compound], the inhibition in vivo at 12.5 mg/kg (rat hind paw edema) is reported as 42.1%, the inhibition in vivo at 25 mg/kg (rat hind paw edema) is reported as 38.1% and the inhibition in vivo at 50 mg/kg (rat hind paw edema) is reported as 52.1%. For the same compound, the inhibition in vivo at 100 mg/kg (rat hind paw edema) was 46.9%.

`CCCCC1C(=O)N(c2ccccc2)N(c2ccccc2)C1=O` [Phenylbutazone, reference compound] was tested, and the “% Stretching decrease from the control” value (abdominal stretching) was 43%, the “Activity in experimental polyarthritis assay” value ([1]; 200 mg/Kg p.o.) was “significant activity” and the inhibition in vivo at 10 mg/kg (rat hind paw edema) was 8%. It also gave an inhibition in vivo at 30 mg/kg (rat hind paw edema) of 17%, an inhibition in vivo at 90 mg/kg (rat hind paw edema) of 20% and an inhibition in vivo at 200 mg/kg (rat hind paw edema) of 42%.
